# In patent US6384083B1, “USE OF ADAMANTANE AMINES OR STRUCTURALLY SIMILAR COMPOUNDS FOR COMBATING BORNA DISEASE VIRUS AND FOR THE PREVENTION AND TREATMENT OF AFFECTIVE DISEASES AND OTHER DISORDERS ASSOCIATED WITH BDV INFECTIONS IN HUMANS AND ANIMALS” (priority 1996, dated 2002):
# Where a name gives a salt, the structure may show the parent alone.
# Tests used:
# influenza A strains = details: cited from earlier work
# influenza B strains = details: cited from earlier work
# [1] = test system: human Borna disease virus strain BDV-Hu-H1; assay: Inhibition of BDV infection of young rabbit brain cells after one-hour pre-treatment; type: cell-based, Borna disease virus (human strain) in rabbit brain cells; details: one-hour pre-treatment before infection, 100±10 ffu/mL BDV-Hu-H1, read-out: concentration that inhibits the infection of rabbit brain cells with human BDV to the extent of 50%
# Method: (§1) Young rabbit brain cells were treated with amantadine sulfate and, in a comparison experiment, with meso-inositol. After this treatment, both samples were treated for 1 hour with a human Borna disease virus strain (100±10 ffu/mL with BDV-Hu-H1 (regarding this strain, refer also to L. Bode, et al., Mol. Psychiatry 1996, 1(3), 200-212)).
# (§2) The highest in vitro dose, which permits normal, unimpaired cell growth, is 1.2 μg/mL, relative to the cell system.
# rabbit brain cells = assay: Cell growth tolerance in the rabbit brain cell system; type: cell-based; details: relative to the cell system
# Method: as §1, §2
# [2] = test system: human oligodendroglia cells (OL cells); assay: Cell growth of OL cells under amantadine sulfate; details: 1.2 μg/mL, whole period observed
# Method: (§3) On the other side, freshly infected OL cells were treated with the same drug dose for 24 hours and then for a further 6 days after the infection.
# BDV-Hu-H1 = assay: Inhibition of BDV replication in human oligodendroglia (OL) cells; details: already infected OL cells, 1.2 μg/mL, 6 days
# Method: as §3
# [3] = test system: activated BDV infection / depression; assay: Treatment of a BDV-infected patient with bipolar disease (severe depressive episode)
# [4] = cited from earlier work
structure (smiles),measurement,setting,value
NC12CC3CC(CC(C3)C1)C2 [amantadine hydrochloride],push back of virus production,influenza A strains,by a power of 10
same,sensitivity of the virus,influenza B strains,not sensitive
NC12CC3CC(CC(C3)C1)C2 [amantadine sulfate],IC50,[1],0.019 µg/mL
same,"highest in vitro dose which permits normal, unimpaired cell growth",rabbit brain cells,1.2 µg/mL
same,effect on cell growth,[2],practically not affected
same,reduction of the number of infectious viruses (factor),BDV-Hu-H1,"more than 10,000"
same,Borna virus activity (protein expression in the blood leucocytes),[3]; after the 11th day of treatment and also 5 months later,could no longer be detected
same,course of depression under treatment,"[3]; from the 8th day to the 11th day, 50 to 200 mg daily",improved dramatically
same,day of treatment after which discharge from hospital was possible,[3]; patient,15 days
same,undesirable side effects,"[3]; patient, until now",no undesirable side effects
"NC12CC3CC(CC(C3)C1)C2 [amantadine, 1-adamantane amine]",half-lifetime,[4]; in vivo,approximately 15 hours
same,absorption after oral administration,[4]; oral,absorbed almost completely
same,depression-free time without hypomanic rebound effect,[3]; patient under therapy,5 months
"CC(N)C12CC3CC(CC(C3)C1)C2 (centres unmarked) [rimantadine, 1-adamantyl-(1-amino) ethane]",excretion / metabolism,[4]; in vivo,metabolized in the liver
